Here are results for 1 molecule from patent publication US9512176B2, “Age inhibitors” (Centre National de la Recherche Scientifique, priority 2005, dated 2016).

Non-standard residues stand in square brackets, D forms with d. Residues, ends and D or L forms follow the SMILES beside them. Dap = NC[C@H](N)C(=O)O

The subject of data set [1] is seven strains of Salmonella (six mixed strains, strain TA98). The data set is described as follows: Ames test with and without human liver S9 fractions. The note with it: for Six mixed strains / Strain TA98: mixture with methylglyoxal, 10/1/0.1 μM. It counts as cell-based. Details: key to Six mixed strains / Strain TA98: −: non-mutagenic; +: mutagenic. How it is done: An Ames test was performed with L-DAPA-L-Leu (example 1) and L-DAPA-L-Val (example 23) alone and in combination with methylglyoxal on human liver S9 fractions and on seven strains of Salmonella.
The concentrations used in the Ames test were as follows: • L-DAPA-L-Leu alone or L-DAPA-L-Val alone: 10 μM, 1 μM and 0.1 μM. • L-DAPA-L-Leu/methylglyoxal mixture or L-DAPA-L-Val/methylglyoxal mixture: 10 μM, 1 μM and 0.1 μM. • Methylglyoxal: 10 μM.
(In general: The Ames test detects mutagens through reverse mutation in bacteria.)

For another data set, the system named is lysozyme. The data set is described as follows: SDS PAGE electrophoresis of lysozyme incubated with methylglyoxal and inhibitor. It counts as biochemical. The conditions noted are these: lysozyme 10 mg/ml, methylglyoxal 10 mM, inhibitor equimolar, 37° C., 48 hours. How it is done:
Ribonuclease A and lysozyme (10 mg/ml) are incubated in the presence of methylglyoxal (10 mM) or in the presence of methylglyoxal and one of the inhibitors according to the present invention in an equimolar quantity at 37° C. After 48 hours of incubation, the proteins are analyzed by polyacrylamide gel electrophoresis (8%-16% SDS PAGE gel).

The subject of a further data set is RNase A. The data set is described as follows: RNase A modifications induced by methylglyoxal (HPLC). The conditions noted are these: RNase A 0.08 mM, methylglyoxal 32 mM, compound 38 mM, 21 hours at 37° C. The class given is biochemical. How it is done:
FIGS. 11 to 13 present the results obtained by HPLC for three compounds according to the present invention, L-DAPA-L-Ile (example 18), L-DAPA-L-Val (example 23) and L-DAPA-L-Leu (example 1), on RNase A modifications induced by methylglyoxal. HPLC conditions are as follows: C-18, Symmetry 300 (4.6×250 mm) column, injection volume 100 μl of reaction mixture diluted to 1/10; flow 1 ml/min; temperature 40° C.; solvent A: H2O+0.1% TFA; solvent B: 60/40 CH3CN/H2O+0.1% TFA; linear gradient of 20% B to 80% B in 20 minutes; detection: UV at 215 nm: PDA (chromatograms extracted at 215 nm).

On to `CC(C)C[C@H](NC(=O)[C@@H](N)CN)C(=O)O` [example 1, L-DAPA-L-Leu.2HCl] (H-[Dap]-Leu-OH), for which, in data set [1] (Human S9: No), the Six mixed strains entry is listed as “−” and the “Strain TA98” value was “−”. In data set [1] (Human S9: Yes (metabolites)), the Six mixed strains result is “−” and the “Strain TA98” value is reported as “−”. In addition, the “mutagenicity” value in data set [1] (alone or in combination with methylglyoxal, TA98, mixed strains, human liver S9 fractions) is “neither substance (L-DAPA-L-Leu or L-DAPA-L-Val) was mutagenic”. Also, the “protection from structural modifications (dimer form) caused by methylglyoxal” value in the data set with lysozyme is recorded as “provides protection”. Further, the “RNase A modifications induced by methylglyoxal” value in the data set on RNase A is recorded as “prevent the modifications to RNase A”.
